Values quoted from earlier work in patent US12649758B2, “Industrial method for simultaneously preparing Stevia rebaudiana chlorogenic acid and stevioside” (Chenguang Biotech Group Co., Ltd., priority 2018, dated 2026).

In the case of `C=C1C[C@@]23CC[C@H]4[C@@](C)(CCC[C@@]4(C)C(=O)O[C@@H]4O[C@H](CO)[C@@H](O)[C@H](O)[C@H]4O)[C@@H]2CC[C@]1(O[C@@H]1O[C@H](CO)[C@@H](O)[C@H](O)[C@H]1O[C@@H]1O[C@H](CO)[C@@H](O)[C@H](O)[C@H]1O)C3` [Stevioside, stevioside], the “sweetness relative to sucrose” value is listed as 300 to 500 times of sucrose.
